The target of this test is T1, human c-Met (Homo sapiens, UniProt P08581).
T1 construct: Recombinant GST-tagged cytosolic domains of human c-Met; 6xHis; made in house; host or cells: baculovirus system; Sf9 or Sf21 insect cells
The test is described as follows: In vitro c-Met kinase assay (homogeneous time-resolved fluorescence tyrosine kinase assay). The class given is biochemical. The note with it: recombinant GST-tagged cytosolic domain of c-Met, 0.2 nM enzyme, 50 μM MgATP, HTRF readout. From the text:
Recombinant GST-tagged cytosolic domains of human c-Met and other receptor tyrosine kinases including mouse c-Met, human Ron, KDR, IGFR, EGFR, FGFR, Mer, TrkA and Tie2 are used to determine whether the compounds of the instant invention modulate the enzymatic activities of these kinases.
Soluble recombinant GST-tagged cytosolic domains of c-Met and other receptor tyrosine kinases are expressed in a baculovirus system (Pharmingen) according to a protocol recommended by the manufacturer. The c-DNA encoding each cytosolic domain is subcloned into a baculovirus expression vector (pGcGHLT-A, B or C, Pharmingen) containing an in frame 6× histidine tag and a GST tag. […] The protein concentrations of the fusion proteins are determined using Coomassie Plus Protein Assay (Pierce) with BSA as standard.
The kinase activities of c-Met and other kinases are measured using a modified version of the homogeneous time-resolved tyrosine kinase assay described by Park et al. (1999, Anal. Biochem. 269:94-104).
The procedure for determining the potency of a compound to inhibit c-Met kinase comprises the following steps: • 1. […] Read HTRF signals on a Victor reader (PerkinElmer) in HTRF mode after 60 min. • 6. IC50 is determined by fitting the observed relationship between compound concentration and HTRF signal with a 4-parameter logistic equation. […]
(Time-resolved FRET reads energy transfer from a long-lived donor to a nearby acceptor.)

As usually defined, the IC50 is the concentration at which inhibition is half-maximal.

T1 sequence (P08581 956-1390 limits assumed): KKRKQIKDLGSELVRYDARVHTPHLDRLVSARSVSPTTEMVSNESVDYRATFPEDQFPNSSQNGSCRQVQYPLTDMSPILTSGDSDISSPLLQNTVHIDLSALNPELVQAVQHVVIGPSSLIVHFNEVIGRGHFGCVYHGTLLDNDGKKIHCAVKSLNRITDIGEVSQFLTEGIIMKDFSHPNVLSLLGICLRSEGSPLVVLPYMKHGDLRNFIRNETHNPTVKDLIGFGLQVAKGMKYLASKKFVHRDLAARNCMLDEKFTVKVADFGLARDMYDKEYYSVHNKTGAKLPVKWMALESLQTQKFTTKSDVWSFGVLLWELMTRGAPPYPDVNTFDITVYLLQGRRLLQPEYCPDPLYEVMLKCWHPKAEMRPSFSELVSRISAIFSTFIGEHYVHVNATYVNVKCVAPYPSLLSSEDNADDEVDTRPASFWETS

In the case of `Nc1ccc2c(c1)C(=O)Nc1cc(-c3ccccc3)cnc1C=C2` [Compound 14, 8-amino-3-phenylpyrido[3,2-c][2]benzazocin-6(5H)-one], the IC50 was less than 50 µM.

As for `Nc1ccc2c(c1)NC(=O)c1cc(-c3ccccc3)cnc1C=C2` [Compound 15, 8-amino-3-phenylpyrido[3,2-c][1]benzazocin-5(6H)-one], the IC50 was less than 50 µM.

Source of the values: patent US20090291941A1, “Tyrosine Kinase Inhibitors” (priority 2005, published 2009).
